pIC50, pKi: −log10 of the molar value.
Key:
[1] = molecular target: D(2) dopamine receptor (Homo sapiens, UniProt P14416); assay: Binding affinity to human cloned dopamine D2 receptor
[2] = molecular target: D(3) dopamine receptor (Homo sapiens, UniProt P35462); assay: Binding affinity to human cloned dopamine D3 receptor
[3] = molecular target: GABA-A receptor; anion channel; assay: Inhibitory activity against central benzodiazepine receptor; assay type: protein-complex assay
[4] = molecular target: T1, Cholecystokinin receptor (Homo sapiens, UniProt P32239+P32238); assay: Inhibitory activity against cholecystokinin receptor; assay type: protein assay
T1 sequence (P32239 whole entry): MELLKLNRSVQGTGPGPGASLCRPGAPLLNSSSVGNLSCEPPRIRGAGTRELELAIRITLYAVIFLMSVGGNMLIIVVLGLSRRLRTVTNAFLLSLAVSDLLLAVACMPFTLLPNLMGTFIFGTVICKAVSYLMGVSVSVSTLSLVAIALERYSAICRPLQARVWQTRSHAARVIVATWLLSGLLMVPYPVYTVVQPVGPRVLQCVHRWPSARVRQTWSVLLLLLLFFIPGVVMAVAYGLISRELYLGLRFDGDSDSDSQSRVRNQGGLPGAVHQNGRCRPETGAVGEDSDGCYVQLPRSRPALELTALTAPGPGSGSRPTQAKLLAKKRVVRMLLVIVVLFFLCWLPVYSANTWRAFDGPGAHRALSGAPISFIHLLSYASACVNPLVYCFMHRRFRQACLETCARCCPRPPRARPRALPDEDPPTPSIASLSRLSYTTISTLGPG
T1 sequence (P32238 whole entry): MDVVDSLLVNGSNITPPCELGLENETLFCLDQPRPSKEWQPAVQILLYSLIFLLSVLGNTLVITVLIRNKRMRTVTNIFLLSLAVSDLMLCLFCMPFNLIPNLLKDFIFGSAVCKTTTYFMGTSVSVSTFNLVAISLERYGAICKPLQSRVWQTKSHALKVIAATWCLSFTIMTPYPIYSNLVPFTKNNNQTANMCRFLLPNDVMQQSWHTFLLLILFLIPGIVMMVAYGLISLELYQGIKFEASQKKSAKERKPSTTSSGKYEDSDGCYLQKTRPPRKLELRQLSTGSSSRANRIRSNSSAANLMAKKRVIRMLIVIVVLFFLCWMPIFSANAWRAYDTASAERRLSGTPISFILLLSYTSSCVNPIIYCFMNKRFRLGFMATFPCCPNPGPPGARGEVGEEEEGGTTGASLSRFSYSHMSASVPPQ

[5] = molecular target: Adenosine receptor (Homo sapiens, UniProt P30542+P29275+P0DMS8+P29274); assay: Inhibitory activity against adenosine receptor; assay type: protein assay
[6] = test system: Liver microsomes; assay: Metabolic stability in human liver microsomes; assay type: ADME, Microsome
[7] = molecular target: Muscarinic acetylcholine receptor; assay: Inhibitory activity against muscarinic receptor; assay type: protein assay
[8] = Inhibitory activity against adrenergic receptor
[9] = Permeability across Caco-2 cell membrane; assay type: ADME, cell-based; conditions: human
[10] = species: Canis familiaris; assay: Metabolic stability in dog liver microsomes; assay type: ADME, Canis lupus familiaris
[11] = molecular target: Opioid receptors; mu/kappa/delta (Homo sapiens, UniProt P41145+P41143+P35372); assay: Inhibitory activity against opioid receptor; assay type: protein assay
[12] = Inhibitory activity against 5HT receptor
[13] = test system: Rattus norvegicus; assay: Ability to restitute huddling in rat at 2.15 mg/kg, po; assay type: functional
[14] = test system: Liver microsomes; assay: Metabolic stability in rat liver microsomes; assay type: ADME, Microsome
[15] = Inhibitory activity against neurotransmitter transporter
[16] = Inhibitory activity against GABA receptor
[17] = molecular target: D(1A) dopamine receptor (Homo sapiens, UniProt P21728); assay: Inhibitory activity against dopamine D1 receptor
D(1A) dopamine receptor, sequence (P21728 whole entry): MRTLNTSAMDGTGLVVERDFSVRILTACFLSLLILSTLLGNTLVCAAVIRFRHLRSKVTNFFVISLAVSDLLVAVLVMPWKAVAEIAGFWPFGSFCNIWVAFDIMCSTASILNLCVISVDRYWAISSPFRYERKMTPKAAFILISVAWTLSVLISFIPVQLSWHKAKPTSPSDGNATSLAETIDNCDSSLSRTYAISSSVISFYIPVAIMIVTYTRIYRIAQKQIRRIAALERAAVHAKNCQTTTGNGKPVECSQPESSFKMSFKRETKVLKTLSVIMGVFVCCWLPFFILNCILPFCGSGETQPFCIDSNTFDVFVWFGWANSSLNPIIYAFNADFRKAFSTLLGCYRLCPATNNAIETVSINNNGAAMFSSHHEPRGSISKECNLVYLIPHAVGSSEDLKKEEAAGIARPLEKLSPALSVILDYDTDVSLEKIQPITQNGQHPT

[18] = molecular target: D(1B) dopamine receptor (Homo sapiens, UniProt P21918); assay: Inhibitory activity against dopamine D5 receptor
D(1B) dopamine receptor, sequence (P21918 whole entry): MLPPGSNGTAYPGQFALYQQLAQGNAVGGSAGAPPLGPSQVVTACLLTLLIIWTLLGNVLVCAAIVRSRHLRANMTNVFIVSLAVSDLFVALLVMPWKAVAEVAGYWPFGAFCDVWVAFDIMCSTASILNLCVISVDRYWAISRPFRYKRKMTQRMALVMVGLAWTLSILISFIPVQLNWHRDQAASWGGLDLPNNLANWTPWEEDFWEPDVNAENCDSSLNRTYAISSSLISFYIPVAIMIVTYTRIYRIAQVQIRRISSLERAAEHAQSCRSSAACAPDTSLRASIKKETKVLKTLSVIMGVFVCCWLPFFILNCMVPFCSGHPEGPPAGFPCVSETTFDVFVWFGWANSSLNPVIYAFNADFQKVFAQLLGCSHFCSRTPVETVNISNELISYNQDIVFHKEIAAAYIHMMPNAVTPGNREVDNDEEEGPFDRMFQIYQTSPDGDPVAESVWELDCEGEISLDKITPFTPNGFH

D(3) dopamine receptor, sequence (P35462 whole entry): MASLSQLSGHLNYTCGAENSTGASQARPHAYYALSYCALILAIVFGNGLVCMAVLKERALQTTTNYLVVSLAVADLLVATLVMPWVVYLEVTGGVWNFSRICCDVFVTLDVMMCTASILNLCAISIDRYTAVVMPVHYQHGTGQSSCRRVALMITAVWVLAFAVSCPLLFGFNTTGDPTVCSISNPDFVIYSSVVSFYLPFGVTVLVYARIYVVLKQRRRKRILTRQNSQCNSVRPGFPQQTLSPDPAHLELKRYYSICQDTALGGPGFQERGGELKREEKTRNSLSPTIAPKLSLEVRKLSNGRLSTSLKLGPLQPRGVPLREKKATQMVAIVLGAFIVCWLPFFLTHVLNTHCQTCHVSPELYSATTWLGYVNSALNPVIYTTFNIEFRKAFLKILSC
D(2) dopamine receptor, sequence (P14416 whole entry): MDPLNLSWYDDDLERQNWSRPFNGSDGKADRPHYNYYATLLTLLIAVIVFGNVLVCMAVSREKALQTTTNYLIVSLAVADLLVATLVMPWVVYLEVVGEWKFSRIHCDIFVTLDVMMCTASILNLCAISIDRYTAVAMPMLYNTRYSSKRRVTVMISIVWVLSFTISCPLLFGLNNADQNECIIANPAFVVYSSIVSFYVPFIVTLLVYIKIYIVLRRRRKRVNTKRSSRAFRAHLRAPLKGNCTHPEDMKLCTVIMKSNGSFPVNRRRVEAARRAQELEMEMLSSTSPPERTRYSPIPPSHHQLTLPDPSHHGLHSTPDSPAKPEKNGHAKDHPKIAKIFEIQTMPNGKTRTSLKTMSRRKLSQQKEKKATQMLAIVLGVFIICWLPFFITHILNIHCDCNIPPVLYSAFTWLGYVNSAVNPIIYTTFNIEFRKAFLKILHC

Structure (SMILES) | pKi [1] | pKi [2] | other results
CC(C)(C)c1nc(N2CCN(CCCCN3C(=O)CCCc4c(O)cccc43)CC2)cc(C(F)(F)F)n1 | 7.03 |  | 
CC(C)(C)c1nc(N2CCN(CCCCN3C(=O)CC(=O)c4ccccc43)CC2)cc(C(F)(F)F)n1 | 6.85 | 7.40 | 
C[C@H](CCN1CCN(c2cc(C(F)(F)F)nc(C(C)(C)C)n2)CC1)CN1C(=O)CCc2ccccc21 | 6.58 | 7.19 | 
CC(C)(C)c1nc(N2CCN(CCCCN3C(=O)COc4ccccc43)CC2)cc(C(F)(F)F)n1 | 6.45 | 7.92 | 
CC(C)(C)c1nc(N2CCN(CCCCN3C(=O)CCSc4ccccc43)CC2)cc(C(F)(F)F)n1 | 7.08 | 8.02 | 
CC(C)(C)c1nc(N2CCN(CCCCN3C(=O)CCc4ccccc43)CC2)cc(C(F)(F)F)n1 | 6.90 | 8.47 | 
CC(C)(C)c1nc(N2CCN(CCCCN3C(=O)CCCc4ccccc43)CC2)cc(C(F)(F)F)n1 | 6.93 | 7.77 | 
CC(C)(C)c1nc(N2CCN(CCCN3C(=O)CCc4ccccc43)CC2)cc(C(F)(F)F)n1 |  | 7.03 | 
CC(C)(C)c1nc(N2CCN(CCCCN3Cc4ccccc4CC3=O)CC2)cc(C(F)(F)F)n1 |  | 6.53 | 
C[C@@H](CCCN1C(=O)CCc2ccccc21)N1CCN(c2cc(C(F)(F)F)nc(C(C)(C)C)n2)CC1 | 6.54 | 7.65 | 
CC(C)(C)c1nc(N2CCN(CCCCN3C(=O)CCC(=O)c4ccccc43)CC2)cc(C(F)(F)F)n1 | 6.61 |  | pIC50 [3]: < 5.00; IC50 [4]: > 10 µM; IC50 [5]: > 10 µM; Stability [6]: > 97%; IC50 [7]: > 10 µM; pIC50 [8]: < 5.00; Papp [9]: 0.33 ×10⁻⁶ cm/s; Stability [10]: > 97%; IC50 [11]: > 10 µM; pIC50 [12]: < 5.00; Activity [13]: 37%; Stability [14]: > 97%; pIC50 [15]: < 5.00; pIC50 [16]: < 5.00; pIC50 [17]: < 5.00; pIC50 [18]: < 5.00
CC(C)(C)c1nc(N2CCN(CCCCN3CCC(=O)CCC3=O)CC2)cc(C(F)(F)F)n1 | 7.19 | 8.41 | 
COc1cc2c(cc1OC)N(CCCCN1CCN(c3cc(C(F)(F)F)nc(C(C)(C)C)n3)CC1)C(=O)CCC2=O | 6.33 |  | 
COc1cccc2c1CCCC(=O)N2CCCCN1CCN(c2cc(C(F)(F)F)nc(C(C)(C)C)n2)CC1 | 6.61 | 8.00 | 
CC(C)(C)c1nc(N2CCN(CCCCCN3C(=O)CCc4ccccc43)CC2)cc(C(F)(F)F)n1 |  | 5.39 | 
C/C(=C\CN1CCN(c2cc(C(F)(F)F)nc(C(C)(C)C)n2)CC1)CN1C(=O)CCc2ccccc21 | 6.17 | 7.23 | 
CC(C)(C)c1nc(N2CCN(CCCCn3c(=O)ccc4ccccc43)CC2)cc(C(F)(F)F)n1 | 6.82 | 7.95 | 
CC(C)(C)c1nc(N2CCN(C/C=C/CN3C(=O)CCc4ccccc43)CC2)cc(C(F)(F)F)n1 | 6.60 |  | 
